Source: ChEMBL document CHEMBL1133618, “Synthesis and structure-activity relationships of 7-substituted 3-(2, 6-dichlorophenyl)-1,6-naphthyridin-2(1H)-ones as selective inhibitors of pp60(c-src)” (J Med Chem, 2000)

Legend:
[1] = biological target: Platelet-derived growth factor receptor beta (Mus musculus, UniProt P05622); assay: Inhibitory activity against mouse PDGF beta receptor tyrosine kinase
[2] = biological target: Proto-oncogene tyrosine-protein kinase Src (Gallus gallus) (UniProt P00523); assay: Inhibitory activity against avian c-Src tyrosine kinase was determined.
SW-620 = assay: Inhibitory activity against SW-620 human colon adenocarcinoma cells was determined.; assay type: functional, cell-based
HCT-8 = assay: Inhibitory activity against HCT-8 human colon adenocarcinoma cells was determined.; assay type: functional, cell-based
[3] = biological target: Fibroblast growth factor receptor 1 (Homo sapiens, UniProt P11362); assay: Inhibitory activity against fibroblast growth factor receptor 1
HT-29 = assay: Inhibitory activity against HT-29 human colon adenocarcinoma cells was determined.; assay type: functional, cell-based

Fibroblast growth factor receptor 1, sequence (P11362 whole entry): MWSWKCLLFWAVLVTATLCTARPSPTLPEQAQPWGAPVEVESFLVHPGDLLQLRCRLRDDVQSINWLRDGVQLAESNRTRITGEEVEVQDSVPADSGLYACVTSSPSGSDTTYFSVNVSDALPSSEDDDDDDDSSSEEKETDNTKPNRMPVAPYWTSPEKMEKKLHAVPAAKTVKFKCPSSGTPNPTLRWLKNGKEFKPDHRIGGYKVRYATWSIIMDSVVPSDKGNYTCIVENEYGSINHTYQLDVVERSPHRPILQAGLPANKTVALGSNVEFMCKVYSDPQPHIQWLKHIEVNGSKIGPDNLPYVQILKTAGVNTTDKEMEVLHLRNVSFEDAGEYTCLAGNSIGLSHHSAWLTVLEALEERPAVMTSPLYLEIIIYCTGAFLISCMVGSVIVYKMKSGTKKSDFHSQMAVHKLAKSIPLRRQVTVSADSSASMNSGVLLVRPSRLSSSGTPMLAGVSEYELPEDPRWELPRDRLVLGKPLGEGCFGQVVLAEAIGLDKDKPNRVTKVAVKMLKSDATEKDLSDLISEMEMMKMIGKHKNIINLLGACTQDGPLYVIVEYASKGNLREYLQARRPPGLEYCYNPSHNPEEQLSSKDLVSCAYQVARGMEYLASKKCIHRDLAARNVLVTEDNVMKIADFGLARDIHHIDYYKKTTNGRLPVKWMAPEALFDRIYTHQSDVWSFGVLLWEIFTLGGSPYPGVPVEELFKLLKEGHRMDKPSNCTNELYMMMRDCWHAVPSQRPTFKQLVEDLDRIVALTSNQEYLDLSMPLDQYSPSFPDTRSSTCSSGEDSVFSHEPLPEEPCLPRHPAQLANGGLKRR
Platelet-derived growth factor receptor beta, sequence (P05622 whole entry): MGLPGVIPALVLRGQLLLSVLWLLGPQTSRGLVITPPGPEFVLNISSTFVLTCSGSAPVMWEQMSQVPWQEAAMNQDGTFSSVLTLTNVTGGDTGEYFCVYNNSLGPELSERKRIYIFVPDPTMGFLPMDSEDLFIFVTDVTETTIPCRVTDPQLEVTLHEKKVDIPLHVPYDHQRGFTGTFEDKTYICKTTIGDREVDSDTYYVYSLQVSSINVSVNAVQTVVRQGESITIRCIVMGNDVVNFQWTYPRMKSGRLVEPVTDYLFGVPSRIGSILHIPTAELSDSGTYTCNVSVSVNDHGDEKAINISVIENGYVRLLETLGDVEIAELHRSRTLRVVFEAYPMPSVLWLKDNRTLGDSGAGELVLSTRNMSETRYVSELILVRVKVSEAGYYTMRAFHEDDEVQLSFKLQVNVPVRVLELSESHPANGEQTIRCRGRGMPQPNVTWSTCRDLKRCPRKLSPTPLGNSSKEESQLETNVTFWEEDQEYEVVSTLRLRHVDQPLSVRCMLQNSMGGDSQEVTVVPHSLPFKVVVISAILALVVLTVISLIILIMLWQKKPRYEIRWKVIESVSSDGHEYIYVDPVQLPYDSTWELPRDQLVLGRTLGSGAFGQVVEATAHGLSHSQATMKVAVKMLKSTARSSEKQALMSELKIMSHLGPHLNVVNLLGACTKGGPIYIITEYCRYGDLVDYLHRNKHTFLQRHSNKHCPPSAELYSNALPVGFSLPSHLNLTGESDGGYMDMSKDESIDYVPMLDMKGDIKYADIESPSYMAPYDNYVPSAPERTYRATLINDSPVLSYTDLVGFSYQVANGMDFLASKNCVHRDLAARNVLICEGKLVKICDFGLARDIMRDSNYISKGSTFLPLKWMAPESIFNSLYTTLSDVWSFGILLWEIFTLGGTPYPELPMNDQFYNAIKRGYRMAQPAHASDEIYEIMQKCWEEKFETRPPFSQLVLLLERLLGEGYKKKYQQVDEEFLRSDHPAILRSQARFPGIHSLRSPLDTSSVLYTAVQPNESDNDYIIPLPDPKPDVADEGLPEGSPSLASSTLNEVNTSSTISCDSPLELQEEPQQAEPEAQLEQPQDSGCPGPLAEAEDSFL

| Compound | IC50 [1] [µM] | IC50 [2] [µM] | IC50 (SW-620) [µM] | IC50 (HCT-8) [µM] | IC50 [3] [µM] | IC50 (HT-29) [µM] |
| --- | --- | --- | --- | --- | --- | --- |
| COc1ccc(Nc2ncc3cc(-c4c(Cl)cccc4Cl)c(=O)n(C)c3n2)cc1 | – | 0.02 | – | – | – | – |
| CN1CCN(CCCCNc2ncc3cc(-c4c(Cl)cccc4Cl)c(=O)n(C)c3n2)CC1 | – | – | > 25 | > 25 | – | – |
| CN1CCN(c2ccc(Nc3cc4c(cn3)cc(-c3c(Cl)cccc3Cl)c(=O)n4C)cc2)CC1 | – | – | 4.3 | 2.1 | – | 0.83 |
| CN1CCN(CCCNc2ccc3cc(-c4c(Cl)cccc4Cl)c(=O)n(C)c3n2)CC1 | > 50 | – | – | – | > 50 | – |
| Cn1c(=O)c(-c2c(Cl)cccc2Cl)cc2cnc(Nc3ccncc3)nc21 | – | 0.01 | – | 16 | – | 0.14 |
| CN1CCN(CCCCCNc2ncc3cc(-c4c(Cl)cccc4Cl)c(=O)n(C)c3n2)CC1 | – | 0.06 | – | – | – | – |
| CCN(CC)CCOc1ccc(Nc2ccc3cc(-c4c(Cl)cccc4Cl)c(=O)n(C)c3n2)cc1 | > 50 | – | – | – | > 50 | – |
| Cn1c(=O)c(-c2c(Cl)cccc2Cl)cc2cnc(Nc3ccc(N4CCOCC4)cc3)nc21 | 0.64 | – | 0.17 | 1.5 | 0.1 | 0.2 |
| CNc1cc2c(cn1)cc(-c1c(Cl)cccc1Cl)c(=O)n2C | 8 | – | – | 1.7 | 0.21 | 2.8 |
| CCN(CC)CCNc1ncc2cc(-c3c(Cl)cccc3Cl)c(=O)n(C)c2n1 | > 50 | – | – | – | > 50 | – |
| CCN(CC)CCCNc1ccc2cc(-c3c(Cl)cccc3Cl)c(=O)n(C)c2n1 | > 50 | – | – | – | > 50 | – |
| Cn1c(=O)c(-c2c(Cl)cccc2Cl)cc2ccc(N)nc21 | > 50 | – | – | – | > 50 | – |
| CCN(CC)CCNc1cc2c(cn1)cc(-c1c(Cl)cccc1Cl)c(=O)n2C | > 50 | – | – | – | 33 | – |
| CNc1ncc2cc(-c3c(Cl)cccc3Cl)c(=O)n(C)c2n1 | – | 0.75 | 5 | 7.8 | – | 4.1 |
| CN(C)c1cc2c(cn1)cc(-c1c(Cl)cccc1Cl)c(=O)n2C | > 50 | – | – | – | > 50 | – |
| CN1CCN(CCCCCNc2cc3c(cn2)cc(-c2c(Cl)cccc2Cl)c(=O)n3C)CC1 | 9.9 | – | – | – | – | – |
| CN1CCN(CCCNc2ncc3cc(-c4c(Cl)cccc4Cl)c(=O)n(C)c3n2)CC1 | – | 0.15 | 7.5 | 2.5 | – | 15 |
| Cn1c(=O)c(-c2c(Cl)cccc2Cl)cc2cnc(Nc3ccccc3)nc21 | – | 0.02 | – | – | – | – |
| CCN(CC)C(=O)c1ccc(Nc2cc3c(cn2)cc(-c2c(Cl)cccc2Cl)c(=O)n3C)cc1 | 16 | – | – | – | 1.9 | – |
| COc1ccc(Nc2ccc3cc(-c4c(Cl)cccc4Cl)c(=O)n(C)c3n2)cc1 | > 50 | – | – | – | > 50 | – |
| CCN(CC)CCCOc1ccc(Nc2cc3nc(O)c(-c4c(Cl)cccc4Cl)cc3cn2)cc1 | 0.79 | – | – | – | 0.44 | – |
| Cn1c(=O)c(-c2c(Cl)cccc2Cl)cc2ccc(Nc3ccccc3)nc21 | > 50 | – | – | – | > 50 | – |
| Cn1c(=O)c(-c2c(Cl)cccc2Cl)cc2cnc(N)nc21 | – | – | 2.6 | – | – | – |
| CN1CCN(c2ccc(Nc3ncc4cc(-c5c(Cl)cccc5Cl)c(=O)n(C)c4n3)cc2)CC1 | – | – | 0.12 | 0.24 | – | 0.24 |
| CCN(CC)CCOc1ccc(Nc2ncc3cc(-c4c(Cl)cccc4Cl)c(=O)n(C)c3n2)cc1 [PD-0166285] | – | – | 0.27 | 0.42 | – | 0.28 |

Further molecules by falling IC50 [1], results first:

| IC50 [1] [µM] | IC50 [2] [µM] | IC50 (SW-620) [µM] | IC50 (HCT-8) [µM] | IC50 [3] [µM] | IC50 (HT-29) [µM] | Compound |
| --- | --- | --- | --- | --- | --- | --- |
| 6.9 | – | 8.7 | 7.3 | 3.5 | 3.7 | Cn1c(=O)c(-c2c(Cl)cccc2Cl)cc2cnc(Nc3ccncc3)cc21 |
| 6.8 | – | – | – | 2.2 | – | COc1ccc(Nc2cc3c(cn2)cc(-c2c(Cl)cccc2Cl)c(=O)n3C)cc1 |
| 5.8 | – | – | – | – | – | Cn1c(=O)c(-c2c(Cl)cccc2Cl)cc2cnc(NCCCN3CCOCC3)cc21 |
| 4.6 | – | – | – | 0.15 | – | CCN(CC)CCCNc1cc2c(cn1)cc(-c1c(Cl)cccc1Cl)c(=O)n2C |
| 3.6 | – | – | 2.2 | 0.38 | 1.9 | Cn1c(=O)c(-c2c(Cl)cccc2Cl)cc2cnc(N)cc21 |
| 3.2 | – | – | – | – | – | Cn1c(=O)c(-c2c(Cl)cccc2Cl)cc2cnc(NCCCn3ccnc3)cc21 |
| 2.8 | – | – | – | 8.7 | – | Cn1c(=O)c(-c2c(Cl)cccc2Cl)cc2cnc(Nc3ccc(N4CCOCC4)cc3)cc21 |
| 2.8 | – | 7.6 | 2.8 | 0.17 | 2.2 | CN1CCN(CCCNc2cc3c(cn2)cc(-c2c(Cl)cccc2Cl)c(=O)n3C)CC1 |
| 2.4 | – | – | – | 0.08 | – | CCN(CC)CCCCNc1cc2c(cn1)cc(-c1c(Cl)cccc1Cl)c(=O)n2C |
| 1.4 | – | – | – | 0.072 | – | CN1CCN(CCCNc2cc3nc(O)c(-c4c(Cl)cccc4Cl)cc3cn2)CC1 |
| 1.4 | – | – | – | 2.2 | – | Cn1c(=O)c(-c2c(Cl)cccc2Cl)cc2cnc(Nc3ccccc3)cc21 |
| 1.1 | – | – | – | 0.17 | – | CCN(CC)CCCCNc1cc2nc(O)c(-c3c(Cl)cccc3Cl)cc2cn1 |
| 1.1 | – | 2.6 | 2.4 | – | 1.6 | CN1CCN(CCCCNc2cc3c(cn2)cc(-c2c(Cl)cccc2Cl)c(=O)n3C)CC1 |
| 0.9 | – | – | – | – | – | CN1CCN(CCCOc2ccc(Nc3cc4c(cn3)cc(-c3c(Cl)cccc3Cl)c(=O)n4C)cc2)CC1 |
| 0.74 | – | – | – | 0.08 | – | CCN(CC)CCCCCNc1cc2c(cn1)cc(-c1c(Cl)cccc1Cl)c(=O)n2C |
| 0.36 | – | – | – | 0.25 | – | CCN(CC)CCCOc1ccc(Nc2cc3c(cn2)cc(-c2c(Cl)cccc2Cl)c(=O)n3C)cc1 |
| 0.29 | – | – | – | 0.18 | – | CCN(CC)C(=O)c1ccc(Nc2ncc3cc(-c4c(Cl)cccc4Cl)c(=O)n(C)c3n2)cc1 |
| 0.26 | – | – | – | – | – | CN1CCN(CCOc2ccc(Nc3cc4c(cn3)cc(-c3c(Cl)cccc3Cl)c(=O)n4C)cc2)CC1 |
| 0.1 | – | 6.7 | 2.8 | – | 0.75 | CCN(CC)CCOc1ccc(Nc2cc3c(cn2)cc(-c2c(Cl)cccc2Cl)c(=O)n3C)cc1 |
